HELM strings list units from the 5' end as sugar, base in round brackets, then linkage (d deoxyribose, r ribose, m 2'-O-methyl, p phosphodiester). Strings are as the collection lists them; they lack the last nucleoside at the 3' end of the tested compound. [moe] = 2'-O-(2-methoxyethyl) (MOE); [sp] = phosphorothioate linkage; [m5C] = 5-methylcytosine

The data set deals with GFAP. The experiment in a line: mouse, dose not given. Particulars: ASO.
Substance “RNA1{[moe](T)[sp].[moe](T)p.[moe](T)p.[moe](G)p.[moe](T)[sp].d([m5C])[sp].d(T)[sp].d(T)[sp].d(T)[sp].d(A)[sp].d(T)[sp].d(T)[sp].d(T)[sp].d(T)[sp].d(T)[sp].[moe]([m5C])p.[moe]([m5C])p.[moe](T)[sp].[moe]([m5C])}$$$$ (last 3' nucleoside missing)” gave a 3 h FOB score of 0 score 0-7.

As to “RNA1{[moe](T)[sp].[moe]([m5C])p.[moe](T)p.[moe](T)p.[moe](T)p.[moe](A)p.d(T)[sp].d(T)[sp].d(T)[sp].d(T)[sp].d(T)[sp].d([m5C])[sp].d([m5C])[sp].d(T)[sp].d([m5C])[sp].d(A)[sp].[moe](G)p.[moe]([m5C])[sp].[moe](G)}$$$$ (last 3' nucleoside missing)”, the 3 h FOB score is 0 score 0-7.

On to “RNA1{[moe]([m5C])[sp].[moe](A)p.[moe](G)p.[moe]([m5C])p.[moe](A)p.[moe](T)p.d(T)[sp].d(T)[sp].d(G)[sp].d(T)[sp].d([m5C])[sp].d(T)[sp].d(T)[sp].d(T)[sp].d(A)[sp].d(T)[sp].[moe](T)p.[moe](T)[sp].[moe](T)}$$$$ (last 3' nucleoside missing)”, for which the 3 h FOB score was 1 score 0-7.

Consider “RNA1{[moe](G)[sp].[moe](T)p.[moe](G)p.[moe](A)p.[moe](G)[sp].d(G)[sp].d([m5C])[sp].d(T)[sp].d(T)[sp].d(T)[sp].d(T)[sp].d(G)[sp].d(A)[sp].d(G)[sp].d(A)[sp].[moe](T)p.[moe](A)p.[moe](T)[sp].[moe]([m5C])}$$$$ (last 3' nucleoside missing)”, for which the 3 h FOB score turned out to be 5 score 0-7.

The substance “RNA1{[moe](G)[sp].[moe](T)p.[moe]([m5C])p.[moe](A)p.[moe]([m5C])[sp].d(A)[sp].d(T)[sp].d(T)[sp].d([m5C])[sp].d(A)[sp].d([m5C])[sp].d(T)[sp].d(A)[sp].[moe](A)p.[moe](T)p.[moe](A)[sp].[moe](T)}$$$$ (last 3' nucleoside missing)” returned a 3 h FOB score of 0 score 0-7.

“RNA1{[moe](G)[sp].[moe]([m5C])p.[moe](A)p.[moe](A)p.[moe]([m5C])[sp].d(A)[sp].d(G)[sp].d(T)[sp].d(T)[sp].d(T)[sp].d([m5C])[sp].d([m5C])[sp].d(A)[sp].d(T)[sp].d(A)[sp].[moe](A)p.[moe]([m5C])p.[moe](A)[sp].[moe](A)}$$$$ (last 3' nucleoside missing)” registered a 3 h FOB score of 0 score 0-7.

Consider “RNA1{[moe]([m5C])[sp].[moe](A)p.[moe](G)p.[moe]([m5C])p.[moe](A)[sp].d(T)[sp].d(T)[sp].d(T)[sp].d(G)[sp].d(T)[sp].d([m5C])[sp].d(T)[sp].d(T)[sp].d(T)[sp].d(A)[sp].[moe](T)p.[moe](T)p.[moe](T)[sp].[moe](T)}$$$$ (last 3' nucleoside missing)”, for which the 3 h FOB score came out at 2 score 0-7.

As for “RNA1{[moe]([m5C])[sp].[moe](A)p.[moe](T)p.[moe](T)p.[moe](T)[sp].d(G)[sp].d(T)[sp].d([m5C])[sp].d(T)[sp].d(T)[sp].d(T)[sp].d(A)[sp].d(T)[sp].[moe](T)p.[moe](T)p.[moe](T)[sp].[moe](T)}$$$$ (last 3' nucleoside missing)”, the 3 h FOB score was determined as 0 score 0-7.

In turn, “RNA1{[moe](T)[sp].[moe](T)p.[moe](T)p.[moe](A)p.[moe](T)[sp].d(T)[sp].d(T)[sp].d(T)[sp].d(T)[sp].d([m5C])[sp].d([m5C])[sp].d(T)[sp].d([m5C])[sp].[moe](A)p.[moe](G)p.[moe]([m5C])[sp].[moe](G)}$$$$ (last 3' nucleoside missing)” gave a 3 h FOB score of 1 score 0-7.

As to “RNA1{[moe](A)[sp].[moe](A)p.[moe](T)p.[moe]([m5C])p.[moe](A)[sp].d(A)[sp].d(G)[sp].d([m5C])[sp].d(T)[sp].d([m5C])[sp].d([m5C])[sp].d([m5C])[sp].d(A)[sp].d([m5C])[sp].d([m5C])[sp].[moe](T)p.[moe](G)p.[moe]([m5C])[sp].[moe]([m5C])}$$$$ (last 3' nucleoside missing)”, the 3 h FOB score came out at 0 score 0-7.

Turning to “RNA1{[moe](A)[sp].[moe](G)p.[moe](T)p.[moe]([m5C])p.[moe](A)[sp].d(G)[sp].d([m5C])[sp].d([m5C])[sp].d(T)[sp].d(G)[sp].d(G)[sp].d(T)[sp].d(T)[sp].[moe](A)p.[moe](G)p.[moe]([m5C])[sp].[moe]([m5C])}$$$$ (last 3' nucleoside missing)”, the 3 h FOB score came to 2 score 0-7.

Take “RNA1{[moe](T)[sp].[moe](G)p.[moe](A)p.[moe]([m5C])p.[moe]([m5C])[sp].d(T)[sp].d(G)[sp].d(T)[sp].d(G)[sp].d(A)[sp].d([m5C])[sp].d(T)[sp].d(A)[sp].d(T)[sp].d([m5C])[sp].[moe](T)p.[moe](A)p.[moe](G)[sp].[moe](G)}$$$$ (last 3' nucleoside missing)”: the 3 h FOB score is 5 score 0-7.

Substance “RNA1{[moe](G)[sp].[moe]([m5C])p.[moe]([m5C])p.[moe](T)p.[moe](T)[sp].d([m5C])[sp].d([m5C])[sp].d([m5C])[sp].d(T)[sp].d(T)[sp].d(T)[sp].d([m5C])[sp].d([m5C])[sp].d(T)[sp].d(G)[sp].[moe](T)p.[moe]([m5C])p.[moe](T)[sp].[moe](G)}$$$$ (last 3' nucleoside missing)” came in with a 3 h FOB score of 5 score 0-7.

In the case of “RNA1{[moe](T)[sp].[moe]([m5C])p.[moe](A)p.[moe]([m5C])p.[moe](A)[sp].d([m5C])[sp].d(T)[sp].d([m5C])[sp].d([m5C])[sp].d(T)[sp].d([m5C])[sp].d(A)[sp].d(G)[sp].d([m5C])[sp].d(T)[sp].[moe](A)p.[moe](G)p.[moe](G)[sp].[moe](T)}$$$$ (last 3' nucleoside missing)”, the 3 h FOB score came out at 1 score 0-7.

On to “RNA1{[moe](G)[sp].[moe]([m5C])p.[moe](A)p.[moe]([m5C])p.[moe](A)[sp].d(G)[sp].d(T)[sp].d(T)[sp].d([m5C])[sp].d([m5C])[sp].d([m5C])[sp].d(A)[sp].d(G)[sp].d(A)[sp].d(T)[sp].[moe](A)p.[moe]([m5C])p.[moe](T)[sp].[moe]([m5C])}$$$$ (last 3' nucleoside missing)”, for which the 3 h FOB score was found to be 0 score 0-7.

“RNA1{[moe]([m5C])[sp].[moe](T)p.[moe](A)p.[moe](G)p.[moe](T)p.d([m5C])[sp].d(A)[sp].d(G)[sp].d([m5C])[sp].d([m5C])[sp].d(T)[sp].d(G)[sp].d(G)[sp].d(T)[sp].d(T)[sp].[moe](A)p.[moe](G)p.[moe]([m5C])[sp].[moe]([m5C])}$$$$ (last 3' nucleoside missing)” showed a 3 h FOB score of 2 score 0-7.

As for “RNA1{[moe]([m5C])[sp].[moe]([m5C])p.[moe](A)p.[moe](G)p.[moe](T)[sp].d(G)[sp].d(T)[sp].d([m5C])[sp].d(T)[sp].d(T)[sp].d([m5C])[sp].d(A)[sp].d([m5C])[sp].d(T)[sp].d(T)[sp].[moe](T)p.[moe](G)p.[moe]([m5C])[sp].[moe](T)}$$$$ (last 3' nucleoside missing)”, the 3 h FOB score came out at 0 score 0-7.

On to “RNA1{[moe]([m5C])[sp].[moe](A)p.[moe](G)p.[moe](T)p.[moe](A)p.[moe](T)p.d(T)[sp].d(A)[sp].d([m5C])[sp].d([m5C])[sp].d(T)[sp].d([m5C])[sp].d(T)[sp].d(A)[sp].d([m5C])[sp].d(T)[sp].[moe](A)p.[moe](G)[sp].[moe](T)}$$$$ (last 3' nucleoside missing)”, for which the 3 h FOB score is 0 score 0-7.

For the substance “RNA1{[moe](G)[sp].[moe](G)p.[moe](T)p.[moe]([m5C])p.[moe]([m5C])[sp].d(T)[sp].d(A)[sp].d(A)[sp].d(A)[sp].d(T)[sp].d(A)[sp].d(T)[sp].d(T)[sp].d([m5C])[sp].d(T)[sp].[moe](A)p.[moe](G)p.[moe](T)[sp].[moe]([m5C])}$$$$ (last 3' nucleoside missing)”, the 3 h FOB score worked out at 1 score 0-7.

Substance “RNA1{[moe](T)[sp].[moe](G)p.[moe]([m5C])p.[moe]([m5C])p.[moe](A)[sp].d(T)[sp].d(T)[sp].d(T)[sp].d(A)[sp].d(T)[sp].d([m5C])[sp].d(T)[sp].d(G)[sp].[moe](T)p.[moe](G)p.[moe]([m5C])[sp].[moe](T)}$$$$ (last 3' nucleoside missing)” came in with a 3 h FOB score of 3 score 0-7.

As to “RNA1{[moe]([m5C])[sp].[moe]([m5C])p.[moe](A)p.[moe](T)p.[moe](T)[sp].d(T)[sp].d(A)[sp].d(T)[sp].d([m5C])[sp].d(T)[sp].d(G)[sp].d(T)[sp].d(G)[sp].d([m5C])[sp].d(T)[sp].[moe](T)p.[moe](T)p.[moe](A)[sp].[moe](G)}$$$$ (last 3' nucleoside missing)”, the 3 h FOB score worked out at 6 score 0-7.

Turning to “RNA1{[moe](T)[sp].[moe]([m5C])p.[moe](A)p.[moe](G)p.d([m5C])[sp].d([m5C])[sp].d(T)[sp].d(G)[sp].d(G)[sp].d(T)[sp].d(T)[sp].d(A)[sp].d(G)[sp].d([m5C])[sp].[moe]([m5C])p.[moe](T)p.[moe](T)p.[moe](T)[sp].[moe]([m5C])}$$$$ (last 3' nucleoside missing)”, the 3 h FOB score turned out to be 4 score 0-7.

On to “RNA1{[moe](G)[sp].[moe]([m5C])p.[moe]([m5C])p.[moe](A)p.[moe](G)p.[moe](T)p.d(G)[sp].d(T)[sp].d([m5C])[sp].d(T)[sp].d(T)[sp].d([m5C])[sp].d(A)[sp].d([m5C])[sp].d(T)[sp].d(T)[sp].[moe](T)p.[moe](G)[sp].[moe]([m5C])}$$$$ (last 3' nucleoside missing)”, for which the 3 h FOB score is 1 score 0-7.

For “RNA1{[moe](G)[sp].[moe](G)p.[moe](T)p.[moe](G)p.[moe]([m5C])p.d(T)[sp].d(T)[sp].d(T)[sp].d(T)[sp].d(G)[sp].d([m5C])[sp].d([m5C])[sp].d([m5C])[sp].d([m5C])[sp].d([m5C])[sp].[moe](T)p.[moe](G)p.[moe](T)[sp].[moe](A)}$$$$ (last 3' nucleoside missing)”, the 3 h FOB score amounted to 3 score 0-7.

As to “RNA1{[moe]([m5C])[sp].[moe](A)p.[moe](G)p.[moe]([m5C])p.d(A)[sp].d(T)[sp].d(T)[sp].d(T)[sp].d(G)[sp].d(T)[sp].d([m5C])[sp].d(T)[sp].d(T)[sp].d(T)[sp].[moe](A)p.[moe](T)p.[moe](T)p.[moe](T)[sp].[moe](T)}$$$$ (last 3' nucleoside missing)”, the 3 h FOB score was 2 score 0-7.

Source of the values: the OligoGym collection.
